Source: patent publication US20260345654A1, “2,8-DIHYDROXYQUINOLINE GLUCURONIDE DERIVATIVES WITH ENHANCED PROPERTIES FOR USE AS ANTICANCER, ANTIVIRAL, ANTIMICROBIAL, AND OTHER THERAPEUTIC APPLICATIONS” (priority 2023, published 2026)
“Also recorded” adds a separate entry of the source. Where two headings read alike, the source gives them in different places.

Key:
[1] = tested on: A2780, A549 and MDA-MB-231 cells; conditions: cited from earlier work; for improvement with the addition of copper: with vs without copper
[2] = topical treatment of skin cancer; cited from earlier work
[3] = iodinated drug; cited from earlier work
[4] = comparison Table 5; prior art compound; cited from earlier work
[5] = tested on: cancer cell lines; conditions: comparison Table 5; prior art compound; cited from earlier work
[6] = comparison Table 5; prior art compound; cited from earlier work; remark: listed apart in the source
[7] = Solubility; conditions: for solubility of copper complex: aqueous solutions
[8] = Chemical stability; type: physicochemical
[9] = tested on: RL cells; assay: In vitro anti-proliferation (CellTiter-Glo, 72 hr), RL; type: cell-based; conditions: for IC50: 72 hr, read-out: IC50
Description: (§1) Commercially available 8HQ and freshly synthesized G2-8HQ were prepared for in vitro anti-proliferative studies against the following cell lines with and without the presence of 10 μM Cu(+2): (1) A549: […]; (2) BT-549: epithelial cells from ductal tumor; (3) DU-145: human prostate cancer; (4) PANC-1: pancreatic cancer; (5) SU.86.86: a new adoptive pancreatic cell for immunotherapy studies; (6) RL: non-Hodgkin's lymphoma; (7) LnCAP, Prostate cancer cell line; (8) A431, a squamous cell carcinoma line; and (9) UACC-62 a malignant melanoma cell line.
(§2) With regard to the study protocol used, the objective was to conduct a study of the cytotoxicity of W1469 against several cancer cell lines. In the study protocol, preparations for the A549 (Lung) cell line screen are given as an example. The following materials were used: (1) FBS (2) RPMI-1640 medium supplemented with 10% FBS:’ and (3) A549 Cells. The four samples tested are referred to as Items 1-4 below and were placed at 4 °C upon arrival. These four samples were as follows: • Item 1: Tube A (W1469) (500 uM when FBS added) • Item 2: Tube B (W1469g) (1000 uM when FBS added) • Item 3: Tube C (W1469) • Item 4: Tube D (W1469g)
(§3) Add 50 μL of above 2× stocks to appropriate wells to expose appropriate cells to the final dilutions of samples. Add 50 μL media to media and cell control wells and 50 μL media mix to vehicle control wells. Cells are exposed for 72 hr. Following a 72 hr exposure to Sample, perform a CTG assay on all remaining plates.
(§4) At the end of the 72 hr exposure period, remove plates for CellTiter-Glo assay from 37 °C, 5% CO2 incubator and place on the bench at room temperature for 30 mins. Add 100 μL CellTiter-Glo reagent, mix for 2 mins, followed by a further 10 min incubation at room temperature. Record luminescence. Tables showing the resulting plate layouts are included below/

[10] = tested on: RIF tumor; conditions: cited from earlier work
[11] = tested on: A549 cells; assay: In vitro anti-proliferation (CellTiter-Glo, 72 hr), A549; type: cell-based, human; conditions: Homo sapiens, A549, 72 h, 72 hr
Description: as §1, §2
Items 1 and 2 are sterile ready for the addition of 1 ml of sterile FBS. Final concentrations after addition of 1 ml: 500 μM for Tube A and 1000 μM for Tube B. Items 3 and 4 are described further below. In the protocol, media containing 10% FBS and 20 μM CuCl2 are used in Tubes C and D only. A and B are serially diluted in media with 10% FBS and no added copper.
The protocol method proceeds as follows:
Seed 2, 96-well plates of A549 cells with 5,000 cells per well in a total volume of 50 μL per well. Leave overnight. See plate layout below for which wells to seed with 100 μL of media for media control. The following day, cells are exposed to compounds as described below.
For Items 1 & 2, to make the 500 μM and 1000 μM Stocks of samples 1 and 2 (W1469 and W1469g): Add 1 ml of sterile FBS to each Tube A and Tube B, swirl to mix.
To make appropriate 2× final dilutions of sample 1, Tube A (W1469), the following amounts are used: • 500 μM: 10 mL as supplied • 100 μM: 2 mL 500 μM Sample+8 mL media • 30 μM: 3 mL 100 μM Sample+7 mL media • 10 μM: 3 mL 30 μM Sample+6 mL media • 3 μM: 3 mL 10 μM Sample+7 mL media • 1 μM: 3 mL 3 μM Sample+6 mL media • 0.3 μM: 3 mL 1 μM Sample+7 mL media • 0.1 μM: 3 mL 0.3 μM Sample+6 mL media
To make appropriate 2× final dilutions of sample 2, Tube B (W1469g), the following amounts are used: • 1000 μM: 10 mL as supplied • 300 μM: 3 mL 1000 μM Sample+7 mL media • 100 μM: 3 mL 300 μM Sample+6 mL media • 30 μM: 3 mL 100 μM Sample+7 mL media • 10 μM: 3 mL 30 μM Sample+6 mL media • 3 μM: 3 mL 10 μM Sample+7 mL media • 1 μM: 3 mL 3 μM Sample+6 mL media • 0.3 μM: 3 mL 1 μM Sample+7 mL media
For Items 3 & 4, the following protocol was used to make 1000 uM Stocks of samples 3 and 4 (W1469 and W1469g): • 1: Dissolve 3.37 mg W1469 and excipient (Tube C) in 1 ml RPMI medium without added FBS and copper and swirl briefly until completely dissolved. Add 9 ml of RPMI media containing 10% FBS and 20 uM copper. Swirl to mix. Sterile filter the 10 ml with provided syringes and filters. This is now the 1000 μM stock solution W1469 ready for screening • 2: Dissolve 3.2 mg W1469g and excipient (Tube D) in 1 ml RPMI medium without added FBS and copper and swirl briefly until completely dissolved. […] This is now the 1000 μM stock solution W1469g ready for screening. […]

[12] = tested on: DU-145 cells; assay: In vitro anti-proliferation (CellTiter-Glo, 72 hr), DU-145; type: cell-based, human; conditions: Homo sapiens, DU-145, 72 h, 72 hr, read-out: IC50
Description: as §1, §2, §3, §4

[13] = tested on: BT-549 cells; assay: In vitro anti-proliferation (CellTiter-Glo, 72 hr), BT-549; type: cell-based; conditions: Homo sapiens, BT-549, 72 h, 72 hr, read-out: IC50
Description: as §1, §2, §3, §4

[14] = tested on: SU.86.86 cells; assay: In vitro anti-proliferation (CellTiter-Glo, 72 hr), SU.86.86; type: cell-based; conditions: Homo sapiens, SU.86.86, 72 h, 72 hr, read-out: IC50
Description: as §1, §2, §3, §4

[15] = tested on: PANC-1 cells; assay: In vitro anti-proliferation (CellTiter-Glo, 72 hr), PANC-1; type: cell-based; conditions: Homo sapiens, PANC-1, 72 h, 72 hr
Description: as §1, §2, §3, §4

[16] = In vitro anti-proliferation of commercial G8HQ; type: cell-based
Description: The present inventors obtained a commercial sample of G8HQ and tested it in vitro under conditions with copper added and found a possible reading of >500 uM IC 50, indicating no anti-proliferative activity, but such examination was cursory and not conclusive. Of further relevance, Oliveri 2012 designed an O-linked glucose adducts to the 8-hydroxy position of both 8HQ and CQ (FIG. 17). The resulting pro-drug form as expected abrogated the copper binding and eliminated the anti-cancer activity. […] The authors reasoned that the glucose adduct would improve solubility, and the glucose receptors over-populated on the surface of cancer cells. The anaerobic metabolism and high dependence on glucose that characterizes most cancers is a phenomenon known as the “Warburg Effect”.

[17] = +Cu (10 μM), G2-8HQ values based on MW of apo form (337)

OC[C@H]1O[C@@H](Oc2c(I)cc(Cl)c3cccnc23)[C@H](O)[C@@H](O)[C@@H]1O [GluCQ, 5-chloro-7-iodo-8-quinolinyl-β-D-glucopyranoside]
enhancement of IC50 by copper ([1]; 20 μM Cu^+2): 9 ×
improvement with the addition of copper [1]: about 2 fold

NCC(=O)CCC(=O)O [Aminolaevulinic acid (Levulan), Aminolaevulinic acid]
Side Effects [2]: Burning, Itching or Tingling, Rash or redness; also recorded: Light sensitivity (bright lights/sunshine)

CC(C)Cn1cnc2c(N)nc3ccccc3c21 [Zyclara, Alara (Imiquimod), Imiquimod]
Side Effects [2]: headache or backpain, Diarrhea; also recorded: Redness, bleeding or flaking skin, swelling,; also recorded: blistering, sting or pain. Fatigue or tiredness,

O=C(O)[C@H]1O[C@@H](Oc2cccc3c(I)ccnc23)[C@H](O)[C@@H](O)[C@@H]1O [4-iodo, 8-hydroxy beta-D-glucopyranosiduronic acid]
excretion [3]: mainly urinary

O=C(O)[C@H]1O[C@@H](Oc2cccc3cccnc23)[C@H](O)[C@@H](O)[C@@H]1O [GA8HQ]
Complexes w/copper [4]: No
Active w/o Cu (cancer) [5]: No
Solubility of Cu Complex/aqueous [6]: None, (8HQ poor)

O=c1[nH]cc(F)c(=O)[nH]1 [Fluorouracil]
Side Effects [2]: tender skin, serious allergic reaction

Oc1cccc2cccnc12.[Cu+2] [8HQ copper complex, reference compound]
solubility of copper complex [7]: aqueous insoluble

Oc1ccc2cccc(O)c2n1 [2-8HQ, 2,8-quinolinediol]
solubility ([7]; water / aqueous): poor aqueous solubility; also recorded: insoluble in aqueous systems

O=C(O)[C@H]1O[C@@H](Oc2ccc3cccc(O)c3n2)[C@H](O)[C@@H](O)[C@@H]1O.[Cu+2] [G2-8HQ copper complex]
solubility of copper complex [7]: highly soluble in aqueous solutions
stability of copper complex ([8]; in excipient, 24 hours): precipitation after 24 hours
stability of copper complex ([8]; pH values less than 8): rapid precipitated insoluble 2-8HQ copper complex

Oc1cccc2cccnc12 [8HQ, 8-hydroxyquinoline, reference compound]
IC50 [9, 17]: 0.07 µM
IC50 ([9]; Homo sapiens, RL, 72 h, +Cu (10 μM), G2-8HQ values based on MW of apo form (337)): 0.06 µM
IC50 ([9]; Homo sapiens, RL, 72 h, −Cu): 0.62 µM
increase of activity/cytotoxicity in presence of copper ([9]; RL, +Cu^+2 (10 or 20 μM) vs −Cu): 9 fold
solubility ([7]; DMSO): soluble
solubility ([7]; water / aqueous): sparingly soluble
tissue levels of 8-OHQ ([10]; all tissues, 2.0 to 24 hr after glucuronide injection, n = 3): These data points, with n = 3 animals, also failed to show significant tissue levels of 8-OHQ.
IC50 [11, 17]: 29 µM
IC50 ([11]; −Cu): 12.7 µM
IC50 [12, 17]: 11.6 µM
IC50 ([12]; −Cu): 11.6 µM
cytotoxicity change with addition of Cu^+2 ([1]; addition of Cu^+2 to the media): significantly increased the cytotoxicity
activity relative to CQ ([1]; unmodified 8HQ vs CQ): 9 to 27 ×
IC50 [13, 17]: 24.5 µM
IC50 ([13]; −Cu): 9.9 µM
IC50 [14, 17]: 46 µM
IC50 ([14]; −Cu): > 50 µM
IC50 [15, 17]: 11.2 µM
IC50 ([15]; −Cu): 9.3 µM

O=C(O)[C@H]1O[C@@H](Oc2cccc3cccnc23)[C@H](O)[C@@H](O)[C@@H]1O [G8HQ, 8-quinolinyl beta-D-glucopyranosiduronic acid]
tumor uptake ([10]; after acidification of tumors by hyperglycemia, mice): rapid and significantly increased
retention ([10]; after tumor acidification, mice): prolonged retention in tumor and the colon over all other tissues
tumor or general tissue partitioning ([10]; initial animal experiments, no acidification, mice): no significant tumor or general tissue partitioning
metabolic clearance / elimination time ([10]; mice, post injection, listed as 8GHQ): 3 h
Complexes w/copper [4]: No
Active w/o Cu (cancer) [5]: No
activity ([16]; in vitro, without acidification): no activity
IC50 ([16]; with copper added, cursory and not conclusive): > 500 µM
Solubility of Cu Complex/aqueous [6]: None

OC[C@H]1O[C@@H](Oc2cccc3cccnc23)[C@H](O)[C@@H](O)[C@@H]1O [Glu8HQ, 8-quinolinyl beta-D-glucopyranoside]
activity relative to Glu8CQ ([1]; 20 μM Cu^+2): 10 ×
enhancement of IC50 by copper ([1]; 20 μM Cu^+2): 18 ×
activity vs CQ analog ([1]; glucose derivatives, FIG. 18): greater activity than the CQ analog (GluCQ)
improvement with the addition of copper [1]: 10-20 fold
